Results on three molecules are retold here after patent publication US11786495B2 (priority 2021, dated 2023).

Structures can show the parent of a compound that is named as a salt.

For data set [1] the following is noted: model of spinal stenosis; cited from earlier work.
The conditions of data set [2]: 70 kg man, estimated, extrapolated from animal models; cited from earlier work.
Data set [3] is described as follows: TEC vs. Lipinski criteria for CNS drug like properties. The settings on record: four criteria: MW, LogP, HBD, HBA.
The test system of data set [4] is beta amyloid protein. The conditions noted are these: varying concentrations of sodium citrate; thioflavin T positive aggregates; cited from earlier work.

Turning to `O=C(O)CC(O)(CC(=O)O)C(=O)O` [Citrate], the Bone calcium entry in data set [1] was “decrease bone calcium”.
`CCOC(=O)CC(O)(CC(=O)OCC)C(=O)OCC` [TEC, Triethyl citrate]: in data set [2], the LD50 is approximately 500 cc. In data set [3], the “Lipinski criteria met for a CNS drug” value is “Three out of four”.
As for `O=C([O-])CC(O)(CC(=O)[O-])C(=O)[O-].[Na+].[Na+].[Na+]` [sodium citrate], in data set [4], the “Dissolution of calcium-produced beta amyloid aggregates” value was “aggregates dissolve in response to citrate concentration”.
